Columns and labels:
[1] = Fetal data at scheduled necropsy (mg/kg/day dose groups); format: in vivo
Procedure: (§1) Tests were conducted with (S)-(+)-abscisic acid in accordance with standard guidelines and procedures as evidenced by EPA Subchronic Toxicity Test Guidelines: 870.3050—Repeated Dose 28-Day Oral Toxicity Study in Rodents (July 2000); 870.3100—90-Day Oral Toxicity in Rodents (August 1998); 870.3650—Combined Repeated Dose Toxicity Study with the Reproduction/Developmental Toxicity Screening Test (July 2000); and 870.3200—21/28-Day Dermal Toxicity (August 1998), as well as Organization for Economic Co-operation and Development (OECD) Guidelines for the Testing of Chemicals including: Test No. 407: Repeated Dose 28-day Oral Toxicity Study in Rodents; Test No. 408: Repeated Dose 90-Day Oral Toxicity Study in Rodents; Test No. 416: Two-Generation Reproduction Toxicity; and Test No. 410: Repeated Dose Dermal Toxicity: 21/28-day Study.

rats = experiment: Two generation reproduction toxicity study, S-ABA continuously in the diet; format: in vivo; conditions: for Mean Live Offspring Born: per litter; for SPLEEN WEIGHT, % DIFFERENCE: MALES
Procedure: as §1
This study was conducted to determine the potential adverse effects of the test substance on reproduction in a 2-generation study. This included determining the effects of the test substance on male and female reproductive processes, including gonadal function, estrous cyclicity, mating behavior, conception, gestation, parturition, lactation, weaning, and on growth and development of the offspring. A minimum of 1 litter was produced in each generation.
Three groups of male and female were offered ABA, continuously in the diet for at least 70 consecutive days prior to mating. Target tests substance concentrations were 10,000, 15,000, and 20,000 ppm for the F0 and F1 generations. A concurrent control group of 30 rats/sex was offered the basal diet continuously throughout the study. F0 animals were approximately 7 weeks of age at the initiation of test diet administration. The test diet was administered to the offspring selected to become the F1 generation following weaning. The F0 and F1 males continued to receive the test substance throughout mating and continuing through the day prior to euthanasia. The F0 and F1 females continued to receive the test substance throughout mating, gestation, and lactation, and through the day of euthanasia. For both generations (F1 and F2), 8 pups per litter (4 per sex, when possible) were selected to reduce the variability among the litters. Offspring (30/sex/group, if possible) from the pairing of the F0 animals were selected to constitute the F1 generation. F0 males and females were exposed for 127-130 consecutive days and F1 males and females were exposed for 178-186 consecutive days.
All animals were observed twice daily for appearance and behavior. Clinical observations, body weights, and food consumption were recorded at appropriate intervals for males throughout the study and for females prior to mating and during gestation and lactation. All F0 and F1 females were allowed to deliver and rear their pups until weaning on lactation day 21. Clinical observations, body weights, and sexes for F1 and F2 pups were recorded at appropriate intervals. Nonselected F1 pups and all surviving F2 pups were necropsied. Selected organs were weighed from 1 pup/sex/litter from F1 and F2 pups that wee necropsied. Each surviving F0 and F1 parental animal received a complete detailed gross necropsy following the completion of weaning of the F1 and F2 pups, respectively; selected organs were weighed. Spermatogenic endpoints were recorded for all F0 and F1 males, and ovarian primordial follicle counts were recorded for all F0 and F1 females in the control and high-exposure groups and all F0 and F1 females suspected of reduced fertility. Designated tissues from all F0 and F1 parental animals were examined microscopically.

[2] = 10,000 ppm in diet, rat offspring
[3] = 20,000 ppm in diet, rat offspring

CC1=CC(=O)CC(C)(C)[C@@]1(O)/C=C/C(C)=C\C(=O)O [S-ABA, (S)-(+)-abscisic acid]
fetus numbers at necropsy (in words) ([1]; conclusion from Table 5): increase | FETAL DATA AT SCHEDULED NECROPSY, SEX FEMALE, MEAN ([1]; group 2, 500 MG/KG/DAY): 7.2 | FETAL DATA AT SCHEDULED NECROPSY, SEX FEMALE, N (number of fetuses) ([1]; group 2, 500 MG/KG/DAY): 181 | FETAL DATA AT SCHEDULED NECROPSY, SEX MALE, MEAN ([1]; group 2, 500 MG/KG/DAY): 7.5 | FETAL DATA AT SCHEDULED NECROPSY, SEX MALE, N (number of fetuses) ([1]; group 2, 500 MG/KG/DAY): 187 | FETAL DATA AT SCHEDULED NECROPSY, VIABLE FETUSES, MEAN ([1]; group 2, 500 MG/KG/DAY): 14.7 | FETAL DATA AT SCHEDULED NECROPSY, SEX FEMALE, MEAN ([1]; group 3, 750 MG/KG/DAY): 6.6 | FETAL DATA AT SCHEDULED NECROPSY, SEX FEMALE, N (number of fetuses) ([1]; group 3, 750 MG/KG/DAY): 166 | FETAL DATA AT SCHEDULED NECROPSY, SEX MALE, MEAN ([1]; group 3, 750 MG/KG/DAY): 7.5 | FETAL DATA AT SCHEDULED NECROPSY, SEX MALE, N (number of fetuses) ([1]; group 3, 750 MG/KG/DAY): 188 | FETAL DATA AT SCHEDULED NECROPSY, VIABLE FETUSES, MEAN ([1]; group 3, 750 MG/KG/DAY): 14.2 | FETAL DATA AT SCHEDULED NECROPSY, SEX FEMALE, MEAN ([1]; group 4, 1,000 MG/KG/DAY): 8.3 | FETAL DATA AT SCHEDULED NECROPSY, SEX FEMALE, N (number of fetuses) ([1]; group 4, 1,000 MG/KG/DAY): 208 | FETAL DATA AT SCHEDULED NECROPSY, SEX MALE, MEAN ([1]; group 4, 1,000 MG/KG/DAY): 6.8 | FETAL DATA AT SCHEDULED NECROPSY, SEX MALE, N (number of fetuses) ([1]; group 4, 1,000 MG/KG/DAY): 170 | FETAL DATA AT SCHEDULED NECROPSY, VIABLE FETUSES, MEAN ([1]; group 4, 1,000 MG/KG/DAY): 15.1 | Offspring FOUND DEAD (rats; 10,000 ppm in diet): 4 | OFFSPRING WEIGHT, MEAN (rats; 10,000 ppm in diet, FEMALE, postnatal day 1): 6.6 grams | OFFSPRING WEIGHT, MEAN (rats; 10,000 ppm in diet, FEMALE, postnatal day 4): 9.1 grams | OFFSPRING WEIGHT, MEAN (rats; 10,000 ppm in diet, MALE, postnatal day 1): 7.1 grams | OFFSPRING WEIGHT, MEAN (rats; 10,000 ppm in diet, MALE, postnatal day 4): 9.7 grams | Mean Live Offspring Born (rats; 10,000 ppm in diet): 12.3 | POSTNATAL SURVIVAL, POSTNATAL DAY 0-1, MEAN (rats; [2]): 100.0 % PER LITTER | POSTNATAL SURVIVAL, POSTNATAL DAY 7-14, MEAN (rats; [2]): 100.0 % PER LITTER | POSTNATAL SURVIVAL, POSTNATAL DAY 14-21, MEAN (rats; [2]): 100.0 % PER LITTER | Offspring FOUND DEAD (rats; 15,000 ppm in diet): 15 | OFFSPRING WEIGHT, MEAN (rats; 15,000 ppm in diet, FEMALE, postnatal day 1): 6.6 grams | OFFSPRING WEIGHT, MEAN (rats; 15,000 ppm in diet, FEMALE, postnatal day 4): 8.8 grams | OFFSPRING WEIGHT, MEAN (rats; 15,000 ppm in diet, FEMALE, postnatal day 7): 14.0 grams | OFFSPRING WEIGHT, MEAN (rats; 15,000 ppm in diet, MALE, postnatal day 1): 6.9 grams | OFFSPRING WEIGHT, MEAN (rats; 15,000 ppm in diet, MALE, postnatal day 4): 9.3 grams | Mean Live Offspring Born (rats; 15,000 ppm in diet): 13.1 | POSTNATAL SURVIVAL, POSTNATAL DAY 14-21, MEAN (rats; 15,000 ppm in diet, rat offspring): 100.0 % PER LITTER | Offspring FOUND DEAD (rats; 20,000 ppm in diet): 11 | OFFSPRING WEIGHT, MEAN (rats; 20,000 ppm in diet, FEMALE, postnatal day 1): 6.6 grams | OFFSPRING WEIGHT, MEAN (rats; 20,000 ppm in diet, FEMALE, postnatal day 4): 8.8 grams | OFFSPRING WEIGHT, MEAN (rats; 20,000 ppm in diet, MALE, postnatal day 1): 7.0 grams | OFFSPRING WEIGHT, MEAN (rats; 20,000 ppm in diet, MALE, postnatal day 4): 9.3 grams | Mean Live Offspring Born (rats; 20,000 ppm in diet): 12.3 | POSTNATAL SURVIVAL, POSTNATAL DAY 4 (POST-SELECT)-21, MEAN (rats; [3]): 98.0 % PER LITTER | POSTNATAL SURVIVAL, POSTNATAL DAY 14-21, MEAN (rats; [3]): 100.0 % PER LITTER | SPLEEN WEIGHT, % DIFFERENCE (rats; 10,000 PPM vs 0 PPM): −2.0% | SPLEEN WEIGHT, % DIFFERENCE (rats; 15,000 PPM vs 0 PPM): −3.0% | SPLEEN WEIGHT, % DIFFERENCE (rats; 20,000 PPM vs 0 PPM): −8.9% | offspring mortality (in words) (rats; conclusion from Table 3): decreases | number of live offspring per litter (in words) (rats; conclusion from Table 4): increases | follicle size (in words) (rats; conclusion from Table 6): increase | postnatal offspring survival rates (in words) (rats; rats, conclusion from Table 1): increases | offspring weight gain (in words) (rats; rats, conclusion from Table 2): increases | spleen weight (in words) (rats; rats, males and second generation pups): spleen weight reduction

— US9591867B2, “Compositions of abscisic acid for animal health” (Valent BioSciences Corporation, priority 2010, dated 2017)
